We go through two molecules from PMC9926489, “Chemical Optimization of Selective Pseudomonas aeruginosa LasB Elastase Inhibitors and Their Impact on LasB-Mediated Activation of IL-1β in Cellular and Animal Infection Models” (ACS Infectious Diseases, 2023).

Where only a bound is given, the exact number is not on record here.

For one data set, the system named is activated IL-1β. In words: Mouse P. aeruginosa lung infection model, activated IL-1β in lung homogenates. Type of data set: in vivo. As to conditions: C57Bl/6 mice, 10 and 30 mg/kg IV at 1 and 4 h post-infection, 24 h; p < 0.0001. On the procedure:
To investigate if compounds 12 and 16 were able to engage the LasB target in vivo, in the context of a P. aeruginosa lung infection, and to determine the consequences of that inhibition, immunocompetent C57Bl/6 mice were infected intranasally with P. aeruginosa PAO1 and treated with two doses of inhibitors, 10 and 30 mg/kg, administered IV at 1 and 4 h post-infection (Figure 5A). A control group of PAO1-infected animals treated with vehicle and a group of animals infected with the isogenic ΔlasB strain were included in the study. Mice were euthanized 24 h post-infection and their lung homogenates assayed for activated mature IL-1β (using the IL-1 reporter assay) and bacterial numbers (by CFU enumeration).
Infection experiments were approved by the Institutional Animal Care and Use Committee of Emory University. To prepare the bacterial inoculum, P. aeruginosa PAO1 (or its ΔlasB derivative) was grown in Luria broth with shaking at physiologic (37 °C) temperature for 18 h to maximally express LasB (at late log phase). […] Active IL-1β was quantified by adding 100 μL of cell-free homogenate to IL-1β responsive HEK IL-1R-lux reporter cells. Activity was assayed by luminescence measured with D-luciferin substrate (Steady-Luc, Biotium) on a multimode reader (PerkinElmer) and expressed as relative luminescence units (RU). […] Statistics were calculated by ANOVA with a Dunnett post-test.

The nature of data set [1]: Mouse pharmacokinetics, plasma. Type of data set: in vivo. As to conditions: single 10 mg/kg IV dose; for half-life / C0 / AUC(0-t) / clearance: female, ICR (CD-1), plasma; for half-life: iv, read-out: plasma t1/2 (converted); for half-life / plasma t1/2: 10 mg/kg; for AUC(0-t): read-out: plasma AUClast; for clearance: read-out: plasma CL. The method, then:
The PK parameters of compounds 12 and 16 were investigated in both plasma and lung epithelial lining fluid (ELF) after intravenous (IV) administration of compounds at 10 mg/kg in mice (Figure 4 and Table 5). […] Accordingly, these levels of lung penetration (9.5 and 5.2%, respectively) warranted the evaluation of the compounds in an animal model of lung infection using IV dosing.
Unrestrained, nonanesthetized mice (Female ICR (CD-1); Age 5–6 weeks; Size 22 ± 2 g; specific pathogen-free (SPF)) were injected IV with test article formulations via the tail vein. Animals were sacrificed by cardiac puncture under CO2 euthanasia at 0.08, 0.25, 1, 2, 4, 8, and 24 h post dosing. Blood was drawn into tubes coated with EDTA-K3, mixed gently and plasma was then harvested and kept frozen at −70 °C until further processing. To collect […] (BALF), 0.5 mL of PBS was administered once through a tracheal cannula after which about 0.2 to 0.3 mL of BALF was obtained. The BALF was kept on ice and centrifuged within 1 h of collection and the supernatant was harvested and kept frozen at −70 °C. Plasma and BALF samples were analyzed by LC-MS/MS (AB SCIEX API 3000 mass spectrometer). The apparent ELF volume of each BALF sample was estimated using urea as an endogenous marker of the ELF dilution. The urea concentrations in BALF and plasma samples were determined with the QuantiChrom Urea Assay Kit (DIUR-100) (BioAssay Systems) following the manufacturer’s protocol. For each BALF sample, the drug concentration in ELF was calculated as follows: drug concentrationELF = drug concentrationBALF × (urea concentrationplasma/urea concentrationBALF). The PK parameters of each compound after IV dosing (t1/2, C0, AUClast, and CL) were obtained from the noncompartmental analysis (NCA) of the plasma data using WinNonlin.

For another data set, the target named is T1, MMP-1 (Homo sapiens, UniProt P03956).
T1 sequence (P03956 100-469): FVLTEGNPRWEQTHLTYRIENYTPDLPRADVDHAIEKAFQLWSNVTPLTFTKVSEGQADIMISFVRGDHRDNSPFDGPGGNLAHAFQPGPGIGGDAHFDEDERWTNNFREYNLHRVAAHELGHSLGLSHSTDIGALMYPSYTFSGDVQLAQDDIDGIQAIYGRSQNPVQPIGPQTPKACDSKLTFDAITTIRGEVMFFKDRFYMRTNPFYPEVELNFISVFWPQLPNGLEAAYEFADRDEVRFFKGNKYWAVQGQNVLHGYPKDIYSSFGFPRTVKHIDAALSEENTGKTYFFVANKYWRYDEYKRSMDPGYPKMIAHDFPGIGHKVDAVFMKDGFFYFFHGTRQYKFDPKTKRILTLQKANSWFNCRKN
In words: MMP-1 selectivity assay. To be noted: human MMP-1. Type of data set: biochemical. On the procedure:
Selectivity of compound inhibition was evaluated against other proteases at concentrations between 0.4 and 200 μM. Activity against rabbit angiotensin-converting enzyme (ACE, Sigma) was assessed using 10 μM fluorogenic substrate Abz-Phe-Arg-Lys(Dnp)-P (Enzo Life Sciences) in 100 mM Tris-HCl pH 7, 50 mM NaCl, 10 μM Zn SO4. Activity against human matrix metalloproteases (MMP)-2 and MMP-9 was assessed in 50 mM HEPES pH 7.5, 10 mM CaCl2, 0.01% Triton X-100 using 4 μM fluorogenic substrate Mca-Pro-Leu-Gly-Leu-Dpa-Ala-Arg-NH2 (Enzo Life Sciences). Activity against MMP-1 and MMP-13 was assessed in 25 mM HEPES pH 7.5, 100 mM NaCl, 100 mM CaCl2, 0.0005% Brij using 7.5 μM fluorogenic substrate Mca-Lys-Pro-Leu-Gly-Leu-Dpa-Ala-Arg-NH2 (Sigma) for MMP-1 and 1.25 μM fluorogenic substrate Mca-Pro-Cha-Gly-Nva-His-Ala-Dpa-NH2 (Millipore) for MMP-13. Activity against human neutrophil elastase (HNE, Enzo Life Sciences) was assessed in 100 mM HEPES pH 7.5, 500 mM NaCl, 0.01% of Triton X-100 using 100 μM fluorogenic substrate MeOSuc-AAPV-AMC (Enzo Life Sciences).

One may read the IC50 as the midpoint of a concentration-inhibition curve. On to `COc1cc2sc(CNC(=O)C3(CC(=O)O)Cc4cc(F)c(F)cc4C3)nc2cc1OCCC[N+](C)(CCO)CCO` [Compound 16], for which the “decrease in activated IL-1β in lung homogenates vs PAO1-infected control group” value with activated IL-1β was “up to 4 fold”. Further, in data set [1], the half-life is about 6 h, the C0 turned out to be 176 µg/mL, the AUC(0-t) turned out to be 517 µg·h/mL and the clearance is 0.3 mL/min/kg. Also, the “plasma t1/2” value in data set [1] is listed as 6.5 h. Moreover, the half-inhibitory concentration (IC50) against MMP-1 was over 100 µM.

For the molecule `COc1cc2sc(CNC(=O)C3(CC(=O)O)Cc4ccccc4C3)nc2cc1OCCC[N+](C)(C)C` [Compound 12], the “decrease in activated IL-1β in lung homogenates vs PAO1-infected control group” value with activated IL-1β is listed as “up to 4 fold”. Moreover, in data set [1], the half-life is about 6 h, the C0 came to 92.2 µg/mL, the AUC(0-t) turned out to be 610 µg·h/mL and the clearance came to 0.3 mL/min/kg. Also, the “plasma t1/2” value in data set [1] worked out at 6.2 h. On MMP-1, the IC50 is over 100 µM.
